Experiments:
LYN A = LYN A (Homo sapiens, UniProt P07948); test: SelectScreen kinase profiling; format: biochemical; settings: 5 μM
Experimental: (§1) Src IC50 determinations and single-point inhibition measurements were performed using Invitrogen's Z′-LYTE Tyr 02 assay kit according to the manufacturer's protocols. All kinase assays were performed at ATP concentrations near KM,ATP values, except where noted otherwise. Active human Src kinase was obtained from Millipore. For kinome profiling and IC50 determinations against non-Src kinases, compounds were submitted to Invitrogen's SelectScreen Kinase Profiling Service.

ABL1 = ABL1 (Homo sapiens, UniProt P00519); test: SelectScreen kinase profiling; format: biochemical; settings: ABL1; 5 μM
Experimental: as §1

MAPK1 (ERK2) = MAPK1 (ERK2) (Homo sapiens, UniProt P28482); test: SelectScreen kinase profiling; format: biochemical; settings: 5 μM
Experimental: as §1

RPS6KA3 (RSK2) = RPS6KA3 (RSK2) (Homo sapiens, UniProt P51812); test: SelectScreen kinase profiling; format: biochemical; settings: 5 μM
Sequence of RPS6KA3 (RSK2) (P51812 whole entry): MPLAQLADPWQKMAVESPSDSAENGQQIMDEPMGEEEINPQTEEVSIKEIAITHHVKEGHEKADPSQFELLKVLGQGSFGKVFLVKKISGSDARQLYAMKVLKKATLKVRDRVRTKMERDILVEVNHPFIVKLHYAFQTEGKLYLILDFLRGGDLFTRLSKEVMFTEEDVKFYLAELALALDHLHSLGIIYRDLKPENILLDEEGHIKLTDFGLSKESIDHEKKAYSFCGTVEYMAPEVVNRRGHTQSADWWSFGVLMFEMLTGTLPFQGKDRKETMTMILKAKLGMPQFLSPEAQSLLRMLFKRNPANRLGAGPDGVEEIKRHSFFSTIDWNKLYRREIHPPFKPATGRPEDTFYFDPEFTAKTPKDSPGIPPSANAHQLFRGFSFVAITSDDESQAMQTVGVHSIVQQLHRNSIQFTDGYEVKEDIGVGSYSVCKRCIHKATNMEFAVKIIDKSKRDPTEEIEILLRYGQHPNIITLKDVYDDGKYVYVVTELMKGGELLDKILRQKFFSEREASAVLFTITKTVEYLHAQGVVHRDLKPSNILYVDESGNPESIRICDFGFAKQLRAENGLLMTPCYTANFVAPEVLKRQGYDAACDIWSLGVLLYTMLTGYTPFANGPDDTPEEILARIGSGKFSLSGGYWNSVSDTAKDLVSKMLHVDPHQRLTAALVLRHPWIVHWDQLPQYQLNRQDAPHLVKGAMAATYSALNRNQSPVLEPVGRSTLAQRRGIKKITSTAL
Experimental: as §1

PRKACA (PKA) = PRKACA (PKA) (Homo sapiens, UniProt P17612); test: SelectScreen kinase profiling; format: biochemical; settings: 5 μM
Experimental: as §1

AURKB (Aurora B) = AURKB (Aurora B) (Homo sapiens, UniProt Q96GD4); test: SelectScreen kinase profiling; format: biochemical; settings: AURKB (Aurora B); 5 μM
Sequence of AURKB (Aurora B) (Q96GD4 whole entry): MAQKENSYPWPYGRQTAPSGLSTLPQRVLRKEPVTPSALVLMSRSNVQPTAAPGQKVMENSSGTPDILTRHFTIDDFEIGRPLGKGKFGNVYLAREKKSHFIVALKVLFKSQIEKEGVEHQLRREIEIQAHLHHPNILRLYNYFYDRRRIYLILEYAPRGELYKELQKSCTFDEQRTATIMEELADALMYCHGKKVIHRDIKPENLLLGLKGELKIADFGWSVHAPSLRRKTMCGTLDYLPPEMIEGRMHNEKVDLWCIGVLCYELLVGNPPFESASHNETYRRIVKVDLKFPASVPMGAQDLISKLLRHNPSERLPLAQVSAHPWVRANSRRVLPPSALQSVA
Experimental: as §1

[1] = target: MAPK14 (p38 alpha) Direct (Homo sapiens, UniProt Q16539); test: SelectScreen kinase profiling; format: biochemical; settings: 5 μM
Sequence of MAPK14 (p38 alpha) Direct (Q16539 whole entry): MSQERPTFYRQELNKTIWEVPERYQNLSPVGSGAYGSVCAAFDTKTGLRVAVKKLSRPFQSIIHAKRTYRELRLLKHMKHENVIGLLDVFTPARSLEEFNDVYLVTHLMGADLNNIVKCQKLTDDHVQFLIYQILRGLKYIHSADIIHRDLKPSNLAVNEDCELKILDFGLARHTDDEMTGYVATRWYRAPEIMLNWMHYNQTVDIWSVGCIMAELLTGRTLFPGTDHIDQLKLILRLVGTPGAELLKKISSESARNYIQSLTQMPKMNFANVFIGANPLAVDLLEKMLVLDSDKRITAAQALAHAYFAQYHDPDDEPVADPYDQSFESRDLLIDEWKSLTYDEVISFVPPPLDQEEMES
Experimental: as §1

IGF1R = IGF1R (Homo sapiens, UniProt P08069); test: SelectScreen kinase profiling; format: biochemical; settings: 5 μM
Experimental: as §1

LYN B = LYN B (Homo sapiens, UniProt P07948); test: SelectScreen kinase profiling; format: biochemical; settings: 5 μM
Experimental: as §1

ROCK1 = ROCK1 (Homo sapiens, UniProt Q13464); test: SelectScreen kinase profiling; format: biochemical; settings: 5 μM
Experimental: as §1

SYK = SYK (Homo sapiens, UniProt P43405); test: SelectScreen kinase profiling; format: biochemical; settings: 5 μM
Experimental: as §1

MARK2 = MARK2 (Homo sapiens, UniProt Q7KZI7); test: SelectScreen kinase profiling; format: biochemical; settings: 5 μM
Sequence of MARK2 (Q7KZI7 whole entry): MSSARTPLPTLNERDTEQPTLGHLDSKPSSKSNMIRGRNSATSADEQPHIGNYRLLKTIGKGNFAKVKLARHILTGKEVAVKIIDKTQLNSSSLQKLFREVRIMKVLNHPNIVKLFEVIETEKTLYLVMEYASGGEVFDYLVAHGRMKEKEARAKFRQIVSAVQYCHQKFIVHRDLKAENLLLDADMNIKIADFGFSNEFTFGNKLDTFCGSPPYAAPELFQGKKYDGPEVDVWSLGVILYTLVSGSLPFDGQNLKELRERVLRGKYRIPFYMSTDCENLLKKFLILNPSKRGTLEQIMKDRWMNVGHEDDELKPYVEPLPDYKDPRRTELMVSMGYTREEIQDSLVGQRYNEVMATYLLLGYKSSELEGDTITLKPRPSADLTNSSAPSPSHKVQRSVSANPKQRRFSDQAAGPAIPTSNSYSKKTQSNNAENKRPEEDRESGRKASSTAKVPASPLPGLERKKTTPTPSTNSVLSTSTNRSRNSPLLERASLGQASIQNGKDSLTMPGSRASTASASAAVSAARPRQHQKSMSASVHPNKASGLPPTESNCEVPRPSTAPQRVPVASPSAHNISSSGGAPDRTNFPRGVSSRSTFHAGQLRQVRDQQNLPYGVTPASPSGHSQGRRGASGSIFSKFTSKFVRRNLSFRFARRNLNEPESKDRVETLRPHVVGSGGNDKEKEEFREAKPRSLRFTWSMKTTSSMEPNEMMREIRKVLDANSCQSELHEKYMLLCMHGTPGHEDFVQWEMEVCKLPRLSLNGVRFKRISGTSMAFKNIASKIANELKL
Experimental: as §1

BTK = BTK (Homo sapiens, UniProt Q06187); test: SelectScreen kinase profiling; format: biochemical; settings: 5 μM
Experimental: as §1

BLK = BLK (Homo sapiens, UniProt P51451); test: SelectScreen kinase profiling; format: biochemical; settings: 5 μM
Sequence of BLK (P51451 whole entry): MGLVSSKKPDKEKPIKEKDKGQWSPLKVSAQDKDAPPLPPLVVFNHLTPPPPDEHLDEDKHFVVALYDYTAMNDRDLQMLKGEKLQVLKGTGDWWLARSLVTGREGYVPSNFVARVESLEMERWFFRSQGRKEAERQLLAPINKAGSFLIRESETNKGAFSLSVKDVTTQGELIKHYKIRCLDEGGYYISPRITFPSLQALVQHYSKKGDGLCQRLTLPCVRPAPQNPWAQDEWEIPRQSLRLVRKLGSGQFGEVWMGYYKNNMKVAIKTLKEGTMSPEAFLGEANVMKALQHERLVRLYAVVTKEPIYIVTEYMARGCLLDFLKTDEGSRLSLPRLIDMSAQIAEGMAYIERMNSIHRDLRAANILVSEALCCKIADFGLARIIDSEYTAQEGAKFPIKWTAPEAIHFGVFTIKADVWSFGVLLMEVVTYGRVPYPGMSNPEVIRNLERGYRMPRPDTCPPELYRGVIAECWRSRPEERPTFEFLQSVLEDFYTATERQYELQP
Experimental: as §1

RET = RET (Homo sapiens, UniProt P07949); test: SelectScreen kinase profiling; format: biochemical; settings: 5 μM
Experimental: as §1

MET (cMet) = MET (cMet) (Homo sapiens, UniProt P08581); test: SelectScreen kinase profiling; format: biochemical; settings: 5 μM
Experimental: as §1

YES1 = YES1 (Homo sapiens, UniProt P07947); test: SelectScreen kinase profiling; format: biochemical; settings: 5 μM
Experimental: as §1

DYRK3 = DYRK3 (Homo sapiens, UniProt O43781); test: SelectScreen kinase profiling; format: biochemical; settings: 5 μM
Sequence of DYRK3 (O43781 whole entry): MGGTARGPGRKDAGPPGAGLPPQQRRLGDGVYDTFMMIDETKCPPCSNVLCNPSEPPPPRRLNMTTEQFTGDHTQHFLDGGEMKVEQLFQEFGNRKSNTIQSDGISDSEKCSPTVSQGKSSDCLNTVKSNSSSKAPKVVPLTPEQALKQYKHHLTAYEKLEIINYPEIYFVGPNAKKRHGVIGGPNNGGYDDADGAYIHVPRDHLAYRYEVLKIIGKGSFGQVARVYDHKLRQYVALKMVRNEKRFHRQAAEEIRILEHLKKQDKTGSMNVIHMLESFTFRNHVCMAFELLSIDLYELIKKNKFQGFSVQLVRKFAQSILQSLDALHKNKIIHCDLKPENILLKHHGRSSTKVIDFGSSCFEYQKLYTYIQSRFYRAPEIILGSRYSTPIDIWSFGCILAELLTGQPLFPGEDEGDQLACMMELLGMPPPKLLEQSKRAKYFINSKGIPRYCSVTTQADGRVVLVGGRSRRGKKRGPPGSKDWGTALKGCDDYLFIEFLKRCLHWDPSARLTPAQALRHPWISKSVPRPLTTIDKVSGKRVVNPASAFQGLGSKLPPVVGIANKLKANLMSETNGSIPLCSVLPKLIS
Experimental: as §1

IKBKB (IKK beta) = IKBKB (IKK beta) (Homo sapiens, UniProt O14920); test: SelectScreen kinase profiling; format: biochemical; settings: 5 μM
Experimental: as §1

MAP2K6 (MKK6) = MAP2K6 (MKK6) (Homo sapiens, UniProt P52564); test: SelectScreen kinase profiling; format: biochemical; settings: 5 μM
Sequence of MAP2K6 (MKK6) (P52564 whole entry): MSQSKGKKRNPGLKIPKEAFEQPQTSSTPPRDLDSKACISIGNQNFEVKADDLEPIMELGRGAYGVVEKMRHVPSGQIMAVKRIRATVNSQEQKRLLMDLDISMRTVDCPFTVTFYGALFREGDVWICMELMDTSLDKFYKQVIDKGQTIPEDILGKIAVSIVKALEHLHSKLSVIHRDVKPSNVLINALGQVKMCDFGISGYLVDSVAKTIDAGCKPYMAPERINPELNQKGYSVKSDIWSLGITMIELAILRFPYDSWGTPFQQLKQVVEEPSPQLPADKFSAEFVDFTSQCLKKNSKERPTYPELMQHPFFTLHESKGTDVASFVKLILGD
Experimental: as §1

FLT3 = FLT3 (Homo sapiens, UniProt P36888); test: SelectScreen kinase profiling; format: biochemical; settings: 5 μM
Experimental: as §1

HCK = HCK (Homo sapiens, UniProt P08631); test: Continuous spectrophotometric kinase activity assay; format: biochemical; design: Kinase domain constructs of human c-Abl (residues 229-512), chicken c-Src (residues 251-533 and residues 83-533), murine Lck (residues 227-509), and human Hck (residues 166-445); made in house
Sequence of HCK (P08631 262-515 limits assumed): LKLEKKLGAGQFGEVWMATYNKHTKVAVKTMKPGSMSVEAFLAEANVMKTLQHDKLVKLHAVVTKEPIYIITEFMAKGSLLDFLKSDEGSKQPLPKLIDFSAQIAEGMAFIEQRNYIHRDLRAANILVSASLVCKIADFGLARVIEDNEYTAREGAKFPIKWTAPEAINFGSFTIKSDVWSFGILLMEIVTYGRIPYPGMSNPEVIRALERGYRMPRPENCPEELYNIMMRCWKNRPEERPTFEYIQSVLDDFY

Lck = target: T1, Lck (Mus musculus, UniProt P06240); test: as above; format: biochemical, murine
T1 construct: murine Lck (residues 227-509); made in house
T1 sequence (P06240 227-509): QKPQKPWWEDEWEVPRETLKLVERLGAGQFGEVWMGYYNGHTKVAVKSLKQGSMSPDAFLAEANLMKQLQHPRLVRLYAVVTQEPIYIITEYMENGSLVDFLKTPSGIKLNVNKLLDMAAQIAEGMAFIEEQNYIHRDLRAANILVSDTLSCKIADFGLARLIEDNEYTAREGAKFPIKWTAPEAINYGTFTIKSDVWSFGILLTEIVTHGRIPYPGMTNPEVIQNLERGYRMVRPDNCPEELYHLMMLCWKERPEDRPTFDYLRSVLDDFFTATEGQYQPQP

Src Thr338Ile = test: Inhibition of Src gatekeeper mutant; format: biochemical, chicken
Excerpt: Kinase domain constructs of human c-Abl (residues 229-512), chicken c-Src (residues 251-533 and residues 83-533), murine Lck (residues 227-509), and human Hck (residues 166-445) were expressed as previously described (Seeliger, Young et al. 2005; Seeliger, Nagar et al. 2007; the entire contents of each of which are incorporated by reference herein). Mutations were introduced into chicken c-Src (residues 251-533) (T338I, C277Q, L297M) by site-directed mutagenesis and verified by DNA sequencing.
For the FRET-based endpoint assay, kinase assays were performed using Invitrogen's Z′-LYTE kinase assay using the Tyr 02 substrate peptide (based upon the optimal Abl substrate peptide […]) according to the manufacturer's instructions. Assays were performed at near KM ATP concentrations for full-length c-Src and full-length c-Src T338I-50 μM and 7 μM, respectively.

[2] = 5 μM ATP, 100 μM Src optimal peptide
[3] = 5 μM ATP, 300 μM Src optimal peptide
[4] = 250 μM ATP, 300 μM Src optimal peptide

Sequence of LYN A (P07948 whole entry): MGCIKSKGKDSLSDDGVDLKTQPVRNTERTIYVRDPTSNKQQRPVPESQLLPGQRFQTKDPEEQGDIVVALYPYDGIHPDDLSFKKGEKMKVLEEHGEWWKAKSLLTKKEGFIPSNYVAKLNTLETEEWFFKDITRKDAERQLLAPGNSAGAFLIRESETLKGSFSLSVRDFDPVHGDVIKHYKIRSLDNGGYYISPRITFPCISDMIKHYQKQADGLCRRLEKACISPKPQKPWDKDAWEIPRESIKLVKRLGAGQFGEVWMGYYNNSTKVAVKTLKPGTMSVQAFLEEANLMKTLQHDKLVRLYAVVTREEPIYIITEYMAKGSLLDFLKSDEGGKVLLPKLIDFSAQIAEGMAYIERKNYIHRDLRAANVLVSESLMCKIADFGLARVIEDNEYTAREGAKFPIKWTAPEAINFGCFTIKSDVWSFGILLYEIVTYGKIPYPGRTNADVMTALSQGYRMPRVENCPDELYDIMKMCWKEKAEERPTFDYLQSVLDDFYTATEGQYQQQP

Structure (SMILES): NC(=O)[C@@H]1CCCNC(=O)[C@H](Cc2ccc([N+](=O)[O-])cc2)NC(=O)[C@H](Cc2ccco2)NC(=O)[C@H](CC2CC2)NC(=O)/C=C/C(=O)N1 [trans-A10-B1-C5-D6]
- % inhibition (LYN A): 9%
- % inhibition (ABL1): 18%
- % inhibition (MAPK1 (ERK2)): −3%
- % inhibition (RPS6KA3 (RSK2)): −4%
- % inhibition (PRKACA (PKA)): −1%
- % inhibition (AURKB (Aurora B)): 0%
- % inhibition [1]: −9%
- % inhibition (IGF1R): 9%
- % inhibition (LYN B): 7%
- % inhibition (ROCK1): 12%
- % inhibition (SYK): −1%
- % inhibition (MARK2): 1%
- % inhibition (BTK): 4%
- % inhibition (BLK): 10%
- % inhibition (RET): 6%
- % inhibition (MET (cMet)): −8%
- % inhibition (YES1): 19%
- % inhibition (DYRK3): 4%
- % inhibition (IKBKB (IKK beta)): −1%
- % inhibition (MAP2K6 (MKK6)): −1%
- % inhibition (FLT3): 7%
- IC50 (HCK; [2]): > 100 µM
- IC50 (HCK; [3]): > 100 µM
- IC50 (HCK; [4]): > 100 µM
- IC50 (Lck; [2]): > 100 µM
- IC50 (Lck; [3]): > 100 µM
- IC50 (Lck; [4]): > 100 µM
- inhibition of Src Thr338Ile gatekeeper mutant (in words) (Src Thr338Ile): retained their inhibition potency

Reference: patent publication US8975232B2, “Macrocyclic kinase inhibitors and uses thereof” (President and Fellows of Harvard College, priority 2010, dated 2015)
